In patent publication US20240165112A1, “THERAPY FOR THE TREATMENT OF CANCER” (Bristol-Myers Squibb Company, priority 2022, published 2024):

Test system: TNC, ACTA2, PAI-1 transcripts in normal human lung fibroblasts (NHLF)
Assay: TGF-β-induced gene transcription, fibroblast activation markers (RT-PCR)
Format: cell-based
Description: Normal human lung fibroblasts (NHLF, black bars) were treated with 10 ng/mL TGF-β after 1 hour pre-incubation with a range of Compound 1 concentrations, and cells were lysed 24 hours later. Indicated gene transcripts were assessed by RT-PCR relative to GAPDH. Data were normalized to expression after TGF-β treatment in the presence of only DMSO. Data are presented as mean of 3 biological replicates, and error bars indicate standard deviation. The graphs are representative of at least 2 independent experiments. *P<0.05; ** P<0.01, ***P<0.001; ****P<0.0001 by student's t-test. Abbreviations: ACTA2, smooth muscle actin; CAF, cancer associated fibroblasts; DMSO, dimethyl sulfoxide; GAPDH, glyceraldehyde-3-phosphate dehydrogenase; NHLF, normal lung human fibroblasts; PAI-1, plasminogen activator inhibitor 1; RNA, ribonucleic acid; RT-PCR, reverse transcription polymerase chain reaction; TGF-β, transforming growth factor beta; TNC, tenascin C.
Cells were seeded (75,000 NHLF and lung CAF cells) into 12 well plates with RPMI+10% FBS and allowed to adhere overnight at 37° C., 5% CO2. After one day of serum starvation, cells were pre-treated for 1 hour with DMSO or Compound 1 at 30 μM, 10 μM, 3 μM, 1 μM, or 0.3 μM and then stimulated with 10 ng/mL TGF-β. The 24-hour Compound 1 treated samples were harvested for ribonucleic acid (RNA) extraction.
Cells were directly lysed in Qiagen™ Buffer RLT Plus with 1% 2-Mercaptoethanol added. Total RNA from tumor samples and cell lines was isolated using Qiagen™ AllPrep® DNA/RNA 96 Kit according to manufacturer's protocol. Isolated RNA was analyzed with NanoDrop™ ONE Spectrophotometer for concentration. The RNA integrity was also analyzed on Agilent TapeStation 4200.
Complimentary deoxyribonucleic acid (cDNA) was prepared by using Invitrogen™ SuperScript™ III First-Strand Synthesis SuperMix for qRT-PCR. Up to 1 μg of RNA was prepared according to manufacturer's protocol, using Applied Biosystems™ Veriti™ 96-well thermal cycler. The reverse transcription (RT) program used for cDNA synthesis: • 1. 25° C., 10 minutes • 2. 50° C., 30 minutes • 3. 85° C., 5 minutes • 4. Add E. Coli RNase H, 37° C., 20 minutes • 5. Hold at 4° C. Quantitative Reverse Transcription Polymerase Chain Reaction (qRT-PCR).
The cDNA was diluted 1:3 fold in nuclease-free water for quantitative polymerase chain reaction (qPCR) setup. Human and mouse TaqMan™ assays for targeted genes were ordered through Applied Biosystems™. TaqMan™ assay selection was based on manufacturer's recommendation. The qRT-PCR was set up using Applied Biosystems™ TaqMan™ Fast Advanced Master Mix according to manufacturer's protocol. The qRT-PCR was run on QuantStudio™ 12 Flex with fast run mode: • 1. 95° C., 20 seconds • 2. 95° C., 1 second • 3. 60° C., 20 seconds • 4. Repeat steps 2-3, 39 times
The qPCR data was analyzed, and all cycle threshold (Ct) values were normalized to glyceraldehyde-3-phosphate dehydrogenase (GAPDH) (ΔCt). Analysis was plotted and presented using GraphPad Prism (GraphPad, Version 8.4.1, San Diego, CA).
The levels of phospho-c-Jun in NHLF and non-small cell lung CAF in response to TGF-β in the presence of DMSO or varying concentrations of Compound 1 were summarized in FIG. 7. Cells were treated with DMSO or Compound 1 for 1 hour prior to treatment with 10 ng/mL TGF-β for an additional 2 hours. Phospho-c-Jun levels were determined by western blot analysis and were normalized to DMSO treated samples. […] The relative expression of fibroblast activation markers in NHLF and lung CAF in response to TGF-β in the presence of DMSO or varying concentrations of Compound 1 were summarized in FIGS. 8A-8C and FIGS. 9A-9C. Cells were treated with DMSO or Compound 1 for 2 hours prior to treatment with 10 ng/mL TGF-β. The RNA expression was assessed 24 hours after TGF-β treatment.

[1] = NHLF stimulated with TGFβ, 10 μM Compound 1
[2] = NHLF, 30 μM Compound 1, 10 ng/mL TGF-β, 24 hours

SMILES: C[C@@H]1CC[C@@H](Nc2nc(NC(C)(C)C)ncc2C(N)=O)C[C@H]1O [Compound 1, 2-(tert-butylamino)-4-((1R,3R,4R)-3-hydroxy-4-methylcyclohexylamino)-pyrimidine-5-carboxamide]
- ACTA2 reduced relative to DMSO [1]: 4.1%
- TNC reduced relative to DMSO [1]: 66%
- TNC induction, reduction from peak activation to baseline (NHLF, 3 μM Compound 1, 10 ng/mL TGF-β, 24 hours): 48%
- PAI-1 induction, reduction from peak activation to baseline (NHLF, 10 μM Compound 1, 10 ng/mL TGF-β, 24 hours): 20%
- ACTA2 induction, reduction from peak activation to baseline [2]: 95%
- PAI-1 induction, reduction from peak activation relative to baseline [2]: 57%
- TNC expression [2]: lower than samples that never received TGF-β
